Assay results as given in patent US20250101041A1, “POSITIVE ALLOSTERIC MODULATORS OF THE MUSCARINIC ACETYLCHOLINE RECEPTOR M4” (Vanderbilt University, priority 2022, published 2025).
pEC50: −log10 of the molar value.

Biological target: T1, human mAChR M4 (Homo sapiens, UniProt P08173)
T1 construct: expressed in transfected cells; host or cells: CHO-K1 (American Type Culture Collection), stably expressing hM4 and Gqi5
T1 sequence (P08173 1-479): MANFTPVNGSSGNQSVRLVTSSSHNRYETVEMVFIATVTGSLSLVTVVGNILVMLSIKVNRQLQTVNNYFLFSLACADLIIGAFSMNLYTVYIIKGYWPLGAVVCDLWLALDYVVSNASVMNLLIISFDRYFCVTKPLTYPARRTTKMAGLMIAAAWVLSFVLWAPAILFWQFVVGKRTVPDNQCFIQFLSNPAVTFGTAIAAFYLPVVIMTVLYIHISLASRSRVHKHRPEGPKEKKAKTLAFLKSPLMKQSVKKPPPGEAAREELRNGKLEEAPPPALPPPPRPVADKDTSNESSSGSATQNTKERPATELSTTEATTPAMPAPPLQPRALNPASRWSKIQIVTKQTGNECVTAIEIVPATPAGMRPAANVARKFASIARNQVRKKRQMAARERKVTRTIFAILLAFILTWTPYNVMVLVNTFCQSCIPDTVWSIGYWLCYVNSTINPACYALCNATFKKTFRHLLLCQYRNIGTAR
Assay: mAChR M4 cell-based functional assay: calcium mobilization (Fluo-4, FDSS), potentiation of EC20 acetylcholine response in hM4-Gqi5 CHO-K1 cells
Settings: human M4; for Emax at 30 µM: CHO-K1, % ACh maximum at 30 μM; for pEC50: potentiation of EC20 acetylcholine response, calcium mobilization
Method in brief: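 CHO-K1 cells stably co-expressing human M4 and chimeric Gqi5, loaded with Fluo-4 AM (50 min, 37 °C). Compounds in 11-point 1:3 series added first; EC20 acetylcholine added at 144 s and again at 230 s. Calcium read on FDSS at 1 Hz; EC50 and Emax from four-parameter logistic fit of potentiated EC20 response.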

SMILES | Emax at 30 µM [%] | pEC50
Cc1cc2nccc(=O)n2nc1N1CCc2ncc(-c3ccc(F)c(Cl)c3)cc2C1 [Compound 1-59, 7-(3-(3-chloro-4-fluorophenyl)-7,8-dihydro-1,6-naphthyridin-6(5H)-yl)-8-methyl-4H-pyrimido[1,2-b]pyridazin-4-one] | 99 | 6.61
COc1ccc(-c2cnc3c(c2)CN(c2nn4c(=O)ccnc4cc2C)CC3)cn1 [Compound 1-60, 7-(3-(6-methoxypyridin-3-yl)-7,8-dihydro-1,6-naphthyridin-6(5H)-yl)-8-methyl-4H-pyrimido[1,2-b]pyridazin-4-one] | 104 | 6.85
Cc1ccc(-c2cnc3c(c2)CN(c2nn4c(=O)ccnc4c(C)c2C)CC3)cn1 [Compound 1-61, 8,9-Dimethyl-7-(3-(6-methylpyridin-3-yl)-7,8-dihydro-1,6-naphthyridin-6(5H)-yl)-4H-pyrimido[1,2-b]pyridazin-4-one] | 96 | 7.15
Cc1c(N2CCc3ncc(-c4cnn(C)c4)cc3C2)nn2c(=O)ccnc2c1C [Compound 1-62, 8,9-dimethyl-7-(3-(1-methyl-1H-pyrazol-4-yl)-7,8-dihydro-1,6-naphthyridin-6(5H)-yl)-4H-pyrimido[1,2-b]pyridazin-4-one] | 89 | 6.89
Cc1c(N2CCc3ncc(-c4ccnn4C)cc3C2)nn2c(=O)ccnc2c1C [Compound 1-63, 8,9-dimethyl-7-(3-(1-methyl-1H-pyrazol-5-yl)-7,8-dihydro-1,6-naphthyridin-6(5H)-yl)-4H-pyrimido[1,2-b]pyridazin-4-one] | 97 | 6.69
Cc1c(N2CCc3ncc(C(F)(F)F)cc3C2)nn2c(=O)ccnc2c1C [Compound 1-64, 8,9-dimethyl-7-(3-(trifluoromethyl)-7,8-dihydro-1,6-naphthyridin-6(5H)-yl)-4H-pyrimido[1,2-b]pyridazin-4-one] | 102 | 7.04
Cc1cncc(-c2cnc3c(c2)CN(c2nn4c(=O)ccnc4cc2C)CC3)c1 [Compound 1-65, 8-methyl-7-(3-(5-methylpyridin-3-yl)-7,8-dihydro-1,6-naphthyridin-6(5H)-yl)-4H-pyrimido[1,2-b]pyridazin-4-one] | 70 | 6.18
Cc1cc2nccc(=O)n2nc1N1CCc2ncc(-c3ccc(C(F)(F)F)nc3)cc2C1 [Compound 1-66, 8-methyl-7-(3-(6-(trifluoromethyl)pyridin-3-yl)-7,8-dihydro-1,6-naphthyridin-6(5H)-yl)-4H-pyrimido[1,2-b]pyridazin-4-one] | 77 | 6.08
Cc1cc2nccc(=O)n2nc1N1CCc2ncc(-c3ccc(C4CC4)nc3)cc2C1 [Compound 1-67, 7-(3-(6-cyclopropylpyridin-3-yl)-7,8-dihydro-1,6-naphthyridin-6(5H)-yl)-8-methyl-4H-pyrimido[1,2-b]pyridazin-4-one] | 80 | 6.48
Cc1cc2nccc(=O)n2nc1N1CCc2ncc(-c3cccnc3)cc2C1 [Compound 1-68, 8-methyl-7-(3-(pyridin-3-yl)-7,8-dihydro-1,6-naphthyridin-6(5H)-yl)-4H-pyrimido[1,2-b]pyridazin-4-one] | 84 | 6.45
Cc1cc(=O)n2nc(N3CCc4ncc(-c5cccnc5F)cc4C3)c(C)cc2n1 [Compound 1-69, 7-(3-(2-fluoropyridin-3-yl)-7,8-dihydro-1,6-naphthyridin-6(5H)-yl)-2,8-dimethyl-4H-pyrimido[1,2-b]pyridazin-4-one] | 87 | 6.11
COc1cncc(-c2cnc3c(c2)CN(c2nn4c(=O)cc(C)nc4cc2C)CC3)c1 [Compound 1-70, 7-(3-(5-methoxypyridin-3-yl)-7,8-dihydro-1,6-naphthyridin-6(5H)-yl)-2,8-dimethyl-4H-pyrimido[1,2-b]pyridazin-4-one] | 92 | 6.56
COc1ccc(-c2cnc3c(c2)CN(c2nn4c(=O)cc(C)nc4cc2C)CC3)cn1 [Compound 1-71, 7-(3-(6-methoxypyridin-3-yl)-7,8-dihydro-1,6-naphthyridin-6(5H)-yl)-2,8-dimethyl-4H-pyrimido[1,2-b]pyridazin-4-one] | 90 | 6.84
Cc1cc(=O)n2nc(N3CCc4ncc(-c5ccc(C6CC6)nc5)cc4C3)c(C)cc2n1 [Compound 1-72, 7-(3-(6-cyclopropylpyridin-3-yl)-7,8-dihydro-1,6-naphthyridin-6(5H)-yl)-2,8-dimethyl-4H-pyrimido[1,2-b]pyridazin-4-one] | 75 | 6.76
Cc1cc(=O)n2nc(N3CCc4ncc(-c5ccc(C(F)(F)F)nc5)cc4C3)c(C)cc2n1 [Compound 1-73, 2,8-dimethyl-7-(3-(6-(trifluoromethyl)pyridin-3-yl)-7,8-dihydro-1,6-naphthyridin-6(5H)-yl)-4H-pyrimido[1,2-b]pyridazin-4-one] | 77 | 6.34
COc1cncc(-c2cnc3c(c2)CN(c2nn4c(=O)cc(C(F)(F)F)nc4cc2C)CC3)c1 [Compound 1-74, 7-(3-(5-methoxypyridin-3-yl)-7,8-dihydro-1,6-naphthyridin-6(5H)-yl)-8-methyl-2-(trifluoromethyl)-4H-pyrimido[1,2-b]pyridazin-4-one] | 102 | 6.35
COc1ccc(-c2cnc3c(c2)CN(c2nn4c(=O)cc(C(F)(F)F)nc4cc2C)CC3)cn1 [Compound 1-75, 7-(3-(6-methoxypyridin-3-yl)-7,8-dihydro-1,6-naphthyridin-6(5H)-yl)-8-methyl-2-(trifluoromethyl)-4H-pyrimido[1,2-b]pyridazin-4-one] | 46 | 5.90
Cc1ccc(-c2cnc3c(c2)CN(c2nn4c(=O)cc(C(=O)NC5(C#N)CC5)nc4cc2C)CC3)cn1 [Compound 1-76, N-(1-cyanocyclopropyl)-8-methyl-7-(3-(6-methylpyridin-3-yl)-7,8-dihydro-1,6-naphthyridin-6(5H)-yl)-4-oxo-4H-pyrimido[1,2-b]pyridazine-2-carboxamide] | 79 | 6.83
Cc1ccc(-c2cnc3c(c2)CN(c2nn4c(=O)cc(C(=O)NCc5cncs5)nc4cc2C)CC3)cn1 [Compound 1-77, 8-Methyl-7-(3-(6-methylpyridin-3-yl)-7,8-dihydro-1,6-naphthyridin-6(5H)-yl)-4-oxo-N-(thiazol-5-ylmethyl)-4H-pyrimido[1,2-b]pyridazine-2-carboxamide] | 74 | 6.55
Cc1ccc(-c2cnc3c(c2)CN(c2nn4c(=O)c(Br)cnc4cc2C)CC3)cn1 [Compound 1-78, 3-bromo-8-methyl-7-(3-(6-methylpyridin-3-yl)-7,8-dihydro-1,6-naphthyridin-6(5H)-yl)-4H-pyrimido[1,2-b]pyridazin-4-one] | 79 | 6.82
Cc1ccc(-c2cnc3c(c2)CN(c2nn4c(=O)cc(C5CC5)nc4cc2C)CC3)cn1 [Compound 1-79, 2-cyclopropyl-8-methyl-7-(3-(6-methylpyridin-3-yl)-7,8-dihydro-1,6-naphthyridin-6(5H)-yl)-4H-pyrimido[1,2-b]pyridazin-4-one] | 109 | 7.18
Cc1ccc(-c2cnc3c(c2)CN(c2nn4c(=O)cc(C(F)(F)F)nc4cc2C)CC3)cn1 [Compound 1-80, 8-methyl-7-(3-(6-methylpyridin-3-yl)-7,8-dihydro-1,6-naphthyridin-6(5H)-yl)-2-(trifluoromethyl)-4H-pyrimido[1,2-b]pyridazin-4-one] | 104 | 7.19
Cc1ccc(-c2cnc3c(c2)CN(c2nn4c(=O)cc(C(F)F)nc4cc2C)CC3)cn1 [Compound 1-81, 2-(difluoromethyl)-8-methyl-7-(3-(6-methylpyridin-3-yl)-7,8-dihydro-1,6-naphthyridin-6(5H)-yl)-4H-pyrimido[1,2-b]pyridazin-4-one] | 103 | 7.06
Cc1ccc(-c2cnc3c(c2)CN(c2nn4c(=O)cc(C)nc4c(C)c2C)CC3)cn1 [Compound 1-82, 2,8,9-trimethyl-7-(3-(6-methylpyridin-3-yl)-7,8-dihydro-1,6-naphthyridin-6(5H)-yl)-4H-pyrimido[1,2-b]pyridazin-4-one] | 100 | 6.84
Cc1ccc(-c2cnc3c(c2)CN(c2nn4c(=O)c(C)c(C)nc4cc2C)CC3)cn1 [Compound 1-83, 2,3,8-trimethyl-7-(3-(6-methylpyridin-3-yl)-7,8-dihydro-1,6-naphthyridin-6(5H)-yl)-4H-pyrimido[1,2-b]pyridazin-4-one] | 87 | 6.68
Cc1ccc(-c2cnc3c(c2)CN(c2nn4c(=O)cc(C(F)(F)F)nc4c(C)c2C)CC3)cn1 [Compound 1-84, 8,9-dimethyl-7-(3-(6-methylpyridin-3-yl)-7,8-dihydro-1,6-naphthyridin-6(5H)-yl)-2-(trifluoromethyl)-4H-pyrimido[1,2-b]pyridazin-4-one] | 101 | 6.83
